Experimental data from ChEMBL document CHEMBL1140954, “Syntheses and cytotoxicities of the analogues of the taxoid brevifoliol” (Eur J Med Chem, 2008).
Converted amounts (≈) assume the structure as drawn.

Experiments:
[1] = test system: MCF7; assay: Cytotoxicity against human MCF7 cells after 48 hrs by MTT assay; assay type: functional, cell-based; conditions: MCF7, 48 h
[2] = test system: KB; assay: Cytotoxicity against human KB cells after 48 hrs by MTT assay; assay type: functional, cell-based
[3] = (§1) Cytotoxicity against human Caco-2 cells after 48 hrs by MTT assay; assay type: cell-based; conditions: human, Caco-2 cells
[4] = test system: Caco-2; assay: as §1; assay type: cell-based; conditions: Homo sapiens, Caco-2, 48 h
[5] = test system: HepG2; assay: Cytotoxicity against human HepG2 cells after 48 hrs by MTT assay; assay type: functional, cell-based; conditions: HepG2, 48 h

Row | SMILES | IC50 [1] | IC90 [1] | IC50 [2] | IC90 [2] | IC90 at 48 h [3] | IC50 [4] | IC50 [5] | IC90 [5]
1 | C=C1[C@@H](OC(=O)[C@H](O)[C@@H](NC(=O)OC(C)(C)C)c2ccccc2)C[C@H](OC(C)=O)[C@@]2(C)[C@@H](OC(C)=O)[C@H](OC(=O)c3ccccc3)C3=C(C)C(=O)C[C@@]3(C(C)(C)O)[C@@H](OC(C)=O)[C@H]12 | 100 µg/mL (≈ 114 µM) | 100 µg/mL (≈ 114 µM) | 0.105 µg/mL (≈ 0.12 µM) | 5.33 µg/mL (≈ 6.08 µM) | 100 µg/mL (≈ 114 µM) | 100 µg/mL (≈ 114 µM) | 100 µg/mL (≈ 114 µM) | 100 µg/mL (≈ 114 µM)
2 | CC(=O)O[C@H]1C(=O)[C@@]2(C)[C@H]([C@H](OC(=O)c3ccccc3)[C@]3(O)C[C@H](OC(=O)[C@H](O)[C@@H](NC(=O)c4ccccc4)c4ccccc4)C(C)=C1C3(C)C)[C@]1(OC(C)=O)CO[C@@H]1C[C@@H]2O [PACLITAXEL] | – | 0.86 µg/mL (≈ 1.01 µM) | – | 0.048 µg/mL (≈ 0.0562 µM) | 0.065 µg/mL (≈ 0.0761 µM) | – | – | 1.13 µg/mL (≈ 1.32 µM)
3 | C=C1[C@H]2C[C@]3(C(C)(C)O)CC(=O)C(C)=C3[C@@H](OC(=O)c3ccccc3)[C@H](OC(C)=O)[C@]2(C)[C@@H](OC(C)=O)C[C@@H]1O | 5.33 µg/mL (≈ 9.61 µM) | 22.6 µg/mL (≈ 40.7 µM) | 0.0078 µg/mL (≈ 0.0141 µM) | 1.13 µg/mL (≈ 2.04 µM) | 21 µg/mL (≈ 37.9 µM) | 0.008 µg/mL (≈ 0.0144 µM) | 100 µg/mL (≈ 180 µM) | 100 µg/mL (≈ 180 µM)
4 | C=C1[C@@H](O)C[C@H](OC(C)=O)[C@@]2(C)[C@@H](OC(C)=O)[C@H](OC(=O)c3ccccc3)C3=C(C)C(=O)C[C@@]3(C(C)(C)O)[C@@H](OC(C)=O)[C@H]12 [13-OXO-TAXCHININ A] | 100 µg/mL (≈ 163 µM) | 100 µg/mL (≈ 163 µM) | 100 µg/mL (≈ 163 µM) | 100 µg/mL (≈ 163 µM) | 100 µg/mL (≈ 163 µM) | 100 µg/mL (≈ 163 µM) | 96.6 µg/mL (≈ 158 µM) | 100 µg/mL (≈ 163 µM)
5 | C=C1[C@@H](O)C[C@H](OC(C)=O)[C@@]2(C)[C@@H](OC(C)=O)[C@H](OC(=O)c3ccccc3)C3=C(C)[C@@H](O)C[C@@]3(C(C)(C)O)[C@@H](OC(C)=O)[C@H]12 [TAXCHININ A] | 58.3 µg/mL (≈ 94.8 µM) | 91.6 µg/mL (≈ 149 µM) | 0.316 µg/mL (≈ 0.514 µM) | 7.5 µg/mL (≈ 12.2 µM) | 21 µg/mL (≈ 34.2 µM) | 6.16 µg/mL (≈ 10 µM) | 96.6 µg/mL (≈ 157 µM) | 100 µg/mL (≈ 163 µM)
6 | C=C1[C@H]2C[C@]3(C(C)(C)O)C[C@H](OC(=O)[C@H](O)[C@@H](NC(=O)OC(C)(C)C)c4ccccc4)C(C)=C3[C@@H](OC(=O)c3ccccc3)[C@H](OC(C)=O)[C@]2(C)[C@@H](OC(C)=O)C[C@@H]1O | 48.3 µg/mL (≈ 58.9 µM) | 68.3 µg/mL (≈ 83.3 µM) | 100 µg/mL (≈ 122 µM) | 100 µg/mL (≈ 122 µM) | 100 µg/mL (≈ 122 µM) | 100 µg/mL (≈ 122 µM) | 78.3 µg/mL (≈ 95.5 µM) | 91.6 µg/mL (≈ 112 µM)
7 | C=C1[C@@H](OC(=O)[C@H](O)[C@@H](NC(=O)OC(C)(C)C)c2ccccc2)C[C@H](OC(C)=O)[C@]2(C)[C@@H]1C[C@]1(C(C)(C)O)C[C@H](OC(=O)C(O)C(NC(=O)OC(C)(C)C)c3ccccc3)C(C)=C1[C@@H](OC(=O)c1ccccc1)[C@@H]2OC(C)=O (stereo partly specified) | 100 µg/mL (≈ 92.3 µM) | 100 µg/mL (≈ 92.3 µM) | 2.73 µg/mL (≈ 2.52 µM) | 33.3 µg/mL (≈ 30.7 µM) | 100 µg/mL (≈ 92.3 µM) | 100 µg/mL (≈ 92.3 µM) | 96.6 µg/mL (≈ 89.2 µM) | 100 µg/mL (≈ 92.3 µM)
8 | C=C1[C@@H](OC(=O)[C@H](O)[C@@H](NC(=O)OC(C)(C)C)c2ccccc2)C[C@H](OC(C)=O)[C@]2(C)[C@@H]1C[C@]1(C(C)(C)O)C[C@H](O)C(C)=C1[C@@H](OC(=O)c1ccccc1)[C@@H]2OC(C)=O | 33.3 µg/mL (≈ 40.6 µM) | 55 µg/mL (≈ 67.1 µM) | 100 µg/mL (≈ 122 µM) | 100 µg/mL (≈ 122 µM) | 100 µg/mL (≈ 122 µM) | 100 µg/mL (≈ 122 µM) | 100 µg/mL (≈ 122 µM) | 100 µg/mL (≈ 122 µM)
9 | C=C1[C@@H](OC(=O)[C@H](O)[C@@H](NC(=O)OC(C)(C)C)c2ccccc2)C[C@H](OC(C)=O)[C@]2(C)[C@@H]1C[C@]1(C(C)(C)O)CC(=O)C(C)=C1[C@@H](OC(=O)c1ccccc1)[C@@H]2OC(C)=O | 8.5 µg/mL (≈ 10.4 µM) | 43.3 µg/mL (≈ 53 µM) | 100 µg/mL (≈ 122 µM) | 100 µg/mL (≈ 122 µM) | 100 µg/mL (≈ 122 µM) | 100 µg/mL (≈ 122 µM) | 0.065 µg/mL (≈ 0.0795 µM) | 5.33 µg/mL (≈ 6.52 µM)
10 | C=C1[C@H]2C[C@]3(C(C)(C)O)C[C@H](O)C(C)=C3[C@@H](OC(=O)c3ccccc3)[C@H](OC(C)=O)[C@]2(C)[C@@H](OC(C)=O)C[C@@H]1O [BREVIFOLIOL] | 0.86 µg/mL (≈ 1.54 µM) | 6.16 µg/mL (≈ 11.1 µM) | 0.0031 µg/mL (≈ 0.00557 µM) | 0.6 µg/mL (≈ 1.08 µM) | 1.32 µg/mL (≈ 2.37 µM) | 0.0025 µg/mL (≈ 0.00449 µM) | 0.055 µg/mL (≈ 0.0988 µM) | 1.13 µg/mL (≈ 2.03 µM)
